# Test system: M. tuberculosis-209
# Assay type: cell-based, Mycobacterium tuberculosis
compound,measurement,value
"O=[N+]([O-])c1ccc(/C(O)=C/C(=S)S)cc1 [Compound 11e, (Z)-3-hydroxy-3-(4-nitrophenyl)-prop-2-enedithioic acid]",MIC100 in Mtb-209,active
